Literature values in PubChem BioAssay AID1259409 (Chemical Carcinogenesis Research Information System (CCRIS), 2018).

Test system: rodent chemically induced tumor inhibition, incidence and multiplicity
Assay: CCRIS tumor inhibitor studies
Details: Dose [Inhibitor]: 0; for outcome: Carcinogen: N-methyl-N-nitrosourea (684-93-5), study duration 4 wks, Route [Inhibitor]: Oral, Species: Rat, Strain/Sex: F344/DuCrj/Male, Dose [Carcinogen]: 2 mg/rat, 3 x a wk for 4 wks

## C=C(NC(=O)Cc1ccc(OS(=O)(=O)O)cc1)C(=O)O
Carcinogen: 7,12-DIMETHYLBENZ[A]ANTHRACENE, 57-97-6, 1 MMOL 15 MINUTES AFTER EACH PROMOTER TREATMENT BEGINNING 2 WK POST CARCINOGEN (STUDY DURATION: 42 WK), Route [Inhibitor]: DERMAL, Species: MOUSE, Strain/Sex: SENCAR/FEMALE, Target Tissue: Type of Lesion: SKIN: SQUAMOUS CELL CARCINOMA, Dose [Carcinogen]: 10 NMOL IN 0.2 ML ACETONE ONCE
  tumour outcome (control, treated, inhibition, significance): 48%, 25%, 48%, not calculated

## C[Si](C)(C)c1cc(C(=O)Nc2ccc(C(=O)O)cc2)cc([Si](C)(C)C)c1
0.8 mg/kg by gavage 5 d/wk for 1 wk, 0.8 mg/kg by gavage 5 d/wk for 1 wk
  outcome: colon: tumors
0.8 mg/kg by gavage 5 d/wk for 4 wks, 0.8 mg/kg by gavage 5 d/wk for 4 wks
  outcome: colon: tumors
8 mg/kg by gavage 5 d/wk for 1 wk, 8 mg/kg by gavage 5 d/wk for 1 wk
  outcome: colon: tumors
8 mg/kg by gavage 5 d/wk for 4 wks, 8 mg/kg by gavage 5 d/wk for 4 wks
  outcome: colon: tumors

## S=C=S
Carcinogen: 1,2-DIMETHYLHYDRAZINE, 540-73-8, 250 MG/KG BW IN CORN OIL ADMINISTERED 24 AND 2 HR PRIOR TO AND 24 HR POST EACH CARCINOGEN DOSE (STUDY DURATION: 8 MO), Route [Inhibitor]: GAVAGE, Species: RAT, Strain/Sex: BD6/MALE, Target Tissue: Type of Lesion: INTESTINE: TUMOR, Dose [Carcinogen]: 20 MG/KG BW 1/WK FOR 20 WK, Promoter: NONE USED
  tumour outcome (control, treated, inhibition, significance): 100%, 0%, 100%, not calculated
